The NIST ThermoML archive (doi:10.1016/j.jct.2006.05.008)

Test: molar heat capacity at constant pressure
Details: 101.33 kPa

CCC[n+]1ccn(C)c1.[Br-] [1-methyl-3-propylimidazolium bromide]
Details	molar heat capacity at constant pressure [J/K/mol]
244.42 K, Liquid, Small (less than 1 g) adiabatic calorimetry	265
244.52 K, Crystal, Vacuum adiabatic calorimetry	198.49
244.94 K, Crystal, Vacuum adiabatic calorimetry	198.95
245.29 K, Metastable crystal, Small (less than 1 g) adiabatic calorimetry	199.04
245.35 K, Liquid, Small (less than 1 g) adiabatic calorimetry	265.6
245.89 K, Crystal, Vacuum adiabatic calorimetry	199.57
246.52 K, Liquid, Small (less than 1 g) adiabatic calorimetry	265.56
246.54 K, Liquid, Small (less than 1 g) adiabatic calorimetry	266.09
247.02 K, Crystal, Vacuum adiabatic calorimetry	200.86
247.27 K, Crystal, Vacuum adiabatic calorimetry	200.82
247.37 K, Liquid, Small (less than 1 g) adiabatic calorimetry	266.15
247.66 K, Metastable crystal, Small (less than 1 g) adiabatic calorimetry	201.1
248.62 K, Liquid, Small (less than 1 g) adiabatic calorimetry	266.07
248.65 K, Crystal, Vacuum adiabatic calorimetry	202.17
248.84 K, Liquid, Small (less than 1 g) adiabatic calorimetry	267.47
249.1 K, Crystal, Vacuum adiabatic calorimetry	202.81
249.39 K, Liquid, Small (less than 1 g) adiabatic calorimetry	266.73
250.02 K, Crystal, Vacuum adiabatic calorimetry	203.57
250.02 K, Metastable crystal, Small (less than 1 g) adiabatic calorimetry	203.18
250.73 K, Liquid, Small (less than 1 g) adiabatic calorimetry	266.58
251.18 K, Crystal, Vacuum adiabatic calorimetry	204.9
251.4 K, Crystal, Vacuum adiabatic calorimetry	204.98
251.41 K, Liquid, Small (less than 1 g) adiabatic calorimetry	267.3
251.54 K, Crystal, Vacuum adiabatic calorimetry	205.96
252.37 K, Metastable crystal, Small (less than 1 g) adiabatic calorimetry	205.32
252.77 K, Crystal, Vacuum adiabatic calorimetry	206.43
252.83 K, Liquid, Small (less than 1 g) adiabatic calorimetry	267.16
253.26 K, Crystal, Vacuum adiabatic calorimetry	207.11
253.43 K, Liquid, Small (less than 1 g) adiabatic calorimetry	267.81
254.71 K, Metastable crystal, Small (less than 1 g) adiabatic calorimetry	207.8
254.93 K, Liquid, Small (less than 1 g) adiabatic calorimetry	267.63
255.35 K, Crystal, Vacuum adiabatic calorimetry	209.48
255.45 K, Liquid, Small (less than 1 g) adiabatic calorimetry	268.35
257.03 K, Liquid, Small (less than 1 g) adiabatic calorimetry	268.27
257.05 K, Metastable crystal, Small (less than 1 g) adiabatic calorimetry	210.12
257.43 K, Crystal, Vacuum adiabatic calorimetry	211.8
257.47 K, Liquid, Small (less than 1 g) adiabatic calorimetry	268.84
259.14 K, Liquid, Small (less than 1 g) adiabatic calorimetry	268.9
259.38 K, Metastable crystal, Small (less than 1 g) adiabatic calorimetry	212.62
259.49 K, Liquid, Small (less than 1 g) adiabatic calorimetry	269.39
259.52 K, Crystal, Vacuum adiabatic calorimetry	214.55
260.55 K, Crystal, Vacuum adiabatic calorimetry	216.79
261.24 K, Liquid, Small (less than 1 g) adiabatic calorimetry	269.33
261.52 K, Liquid, Small (less than 1 g) adiabatic calorimetry	269.97
261.6 K, Crystal, Vacuum adiabatic calorimetry	217.5
261.65 K, Liquid, Small (less than 1 g) adiabatic calorimetry	270.17
261.69 K, Metastable crystal, Small (less than 1 g) adiabatic calorimetry	215.45
263.34 K, Liquid, Small (less than 1 g) adiabatic calorimetry	269.95
263.54 K, Liquid, Small (less than 1 g) adiabatic calorimetry	270.5
263.69 K, Crystal, Vacuum adiabatic calorimetry	220.52
263.7 K, Liquid, Small (less than 1 g) adiabatic calorimetry	270.42
264 K, Metastable crystal, Small (less than 1 g) adiabatic calorimetry	218.39
265.44 K, Liquid, Small (less than 1 g) adiabatic calorimetry	270.58
265.56 K, Liquid, Small (less than 1 g) adiabatic calorimetry	271.1
265.73 K, Liquid, Small (less than 1 g) adiabatic calorimetry	270.91
265.77 K, Crystal, Vacuum adiabatic calorimetry	223.78
266.29 K, Metastable crystal, Small (less than 1 g) adiabatic calorimetry	221.46
267.55 K, Liquid, Small (less than 1 g) adiabatic calorimetry	271.24
267.58 K, Liquid, Small (less than 1 g) adiabatic calorimetry	271.73
267.75 K, Liquid, Small (less than 1 g) adiabatic calorimetry	271.67
267.85 K, Crystal, Vacuum adiabatic calorimetry	227.51
268.56 K, Metastable crystal, Small (less than 1 g) adiabatic calorimetry	224.85
269.36 K, Crystal, Vacuum adiabatic calorimetry	231.51
269.61 K, Liquid, Small (less than 1 g) adiabatic calorimetry	272.26
269.67 K, Liquid, Small (less than 1 g) adiabatic calorimetry	271.61
269.77 K, Liquid, Small (less than 1 g) adiabatic calorimetry	272.2
269.93 K, Crystal, Vacuum adiabatic calorimetry	231.49
270.71 K, Metastable crystal, Small (less than 1 g) adiabatic calorimetry	224.7
270.82 K, Metastable crystal, Small (less than 1 g) adiabatic calorimetry	229.03
271.87 K, Liquid, Small (less than 1 g) adiabatic calorimetry	272.35
272 K, Crystal, Vacuum adiabatic calorimetry	235.92
272.05 K, Liquid, Small (less than 1 g) adiabatic calorimetry	273.02
273.43 K, Metastable crystal, Small (less than 1 g) adiabatic calorimetry	235.43
273.97 K, Liquid, Small (less than 1 g) adiabatic calorimetry	272.86
274.08 K, Crystal, Vacuum adiabatic calorimetry	241.07
274.59 K, Liquid, Small (less than 1 g) adiabatic calorimetry	273.93
275.18 K, Metastable crystal, Small (less than 1 g) adiabatic calorimetry	235.92
276.07 K, Liquid, Small (less than 1 g) adiabatic calorimetry	273.68
276.15 K, Crystal, Vacuum adiabatic calorimetry	246.77
276.27 K, Metastable crystal, Small (less than 1 g) adiabatic calorimetry	241.56
277.13 K, Liquid, Small (less than 1 g) adiabatic calorimetry	274.62
277.85 K, Crystal, Vacuum adiabatic calorimetry	253.97
278.17 K, Liquid, Small (less than 1 g) adiabatic calorimetry	274.27
278.22 K, Crystal, Vacuum adiabatic calorimetry	253.72
279.07 K, Metastable crystal, Small (less than 1 g) adiabatic calorimetry	249.25
279.67 K, Liquid, Small (less than 1 g) adiabatic calorimetry	275.3
280.27 K, Liquid, Small (less than 1 g) adiabatic calorimetry	274.91
281.68 K, Metastable crystal, Small (less than 1 g) adiabatic calorimetry	255.47
281.81 K, Metastable crystal, Small (less than 1 g) adiabatic calorimetry	258.32
282.22 K, Liquid, Small (less than 1 g) adiabatic calorimetry	276.12
282.37 K, Liquid, Small (less than 1 g) adiabatic calorimetry	275.55
284.47 K, Liquid, Small (less than 1 g) adiabatic calorimetry	276.33
284.5 K, Metastable crystal, Small (less than 1 g) adiabatic calorimetry	269.64
284.76 K, Liquid, Small (less than 1 g) adiabatic calorimetry	277
286.57 K, Liquid, Small (less than 1 g) adiabatic calorimetry	276.88
287.11 K, Metastable crystal, Small (less than 1 g) adiabatic calorimetry	284.18
287.31 K, Liquid, Small (less than 1 g) adiabatic calorimetry	277.78
287.83 K, Metastable crystal, Small (less than 1 g) adiabatic calorimetry	291.75
288.67 K, Liquid, Small (less than 1 g) adiabatic calorimetry	277.6
289.86 K, Liquid, Small (less than 1 g) adiabatic calorimetry	278.56
290.76 K, Liquid, Small (less than 1 g) adiabatic calorimetry	278.25
292.42 K, Liquid, Small (less than 1 g) adiabatic calorimetry	279.52
292.85 K, Liquid, Small (less than 1 g) adiabatic calorimetry	278.99
294.97 K, Liquid, Small (less than 1 g) adiabatic calorimetry	280.39
297.52 K, Liquid, Small (less than 1 g) adiabatic calorimetry	281.17
300.09 K, Liquid, Small (less than 1 g) adiabatic calorimetry	282.13
302.65 K, Liquid, Small (less than 1 g) adiabatic calorimetry	282.97
305.21 K, Liquid, Small (less than 1 g) adiabatic calorimetry	283.79
307.77 K, Liquid, Small (less than 1 g) adiabatic calorimetry	284.73
310.34 K, Liquid, Small (less than 1 g) adiabatic calorimetry	285.68
312.44 K, Liquid, Small (less than 1 g) adiabatic calorimetry	286.13
315.01 K, Liquid, Small (less than 1 g) adiabatic calorimetry	287.07
317.56 K, Liquid, Small (less than 1 g) adiabatic calorimetry	287.97
320.1 K, Liquid, Small (less than 1 g) adiabatic calorimetry	288.9
322.63 K, Liquid, Small (less than 1 g) adiabatic calorimetry	289.74
325.17 K, Liquid, Small (less than 1 g) adiabatic calorimetry	290.68
327.71 K, Liquid, Small (less than 1 g) adiabatic calorimetry	291.56
330.24 K, Liquid, Small (less than 1 g) adiabatic calorimetry	292.55
332.78 K, Liquid, Small (less than 1 g) adiabatic calorimetry	293.41
335.3 K, Liquid, Small (less than 1 g) adiabatic calorimetry	294.48
337.83 K, Liquid, Small (less than 1 g) adiabatic calorimetry	295.38
340.36 K, Liquid, Small (less than 1 g) adiabatic calorimetry	295.97
342.88 K, Liquid, Small (less than 1 g) adiabatic calorimetry	296.86
345.4 K, Liquid, Small (less than 1 g) adiabatic calorimetry	297.86
347.92 K, Liquid, Small (less than 1 g) adiabatic calorimetry	298.8
350.44 K, Liquid, Small (less than 1 g) adiabatic calorimetry	299.62
352.95 K, Liquid, Small (less than 1 g) adiabatic calorimetry	300.4
355.46 K, Liquid, Small (less than 1 g) adiabatic calorimetry	301.37
357.97 K, Liquid, Small (less than 1 g) adiabatic calorimetry	302.27
359.15 K, Liquid, Small (less than 1 g) adiabatic calorimetry	302.7
360.47 K, Liquid, Small (less than 1 g) adiabatic calorimetry	303.23
361.69 K, Liquid, Small (less than 1 g) adiabatic calorimetry	304.73
362.97 K, Liquid, Small (less than 1 g) adiabatic calorimetry	304.73
364.23 K, Liquid, Small (less than 1 g) adiabatic calorimetry	305.78
366.73 K, Liquid, Small (less than 1 g) adiabatic calorimetry	305.51
